In paper PMC9014410, “Discovery of V-0219: A Small-Molecule Positive Allosteric Modulator of the Glucagon-Like Peptide-1 Receptor toward Oral Treatment for “Diabesity”” (Journal of Medicinal Chemistry, 2022):
Values joined by “and” are separate entries in the source; they are usually repeats but may differ in a detail not shown here. Identical values can stand only once. “Also recorded” adds a separate entry of the source.

What was measured:
[1] = tested on: INS-1 β-cells; experiment: Insulin secretion by rat INS-1 / INS-1E insulinoma cells; type: cell-based; conditions: INS-1E cells, 0.5 mM glucose, single representative experiment
Method: The incubation was done using two types of culture media, defined as low glucose (0.5–3 mM) and high glucose (15 mM). […] Incubation with compounds lasted 30 min, and then the media was collected, centrifuged at 4 °C for 2 min until assayed for insulin using commercial ELISA kit.

[2] = tested on: EndoC-βH1 cells; experiment: Insulin secretion by human pancreatic EndoC-βH1 cells; type: cell-based; conditions: high glucose concentration
Method: Both cell lines were cultured in RPMI 1640 medium supplemented with 10% fetal calf serum as described. Cell monolayers were incubated at 37 °C in a 7.5% CO2 atmosphere. For insulin secretion studies, cells were detached, washed once with glucose-free medium and placed in 48 multiwell plates (100,000 cells per well) and kept in glucose-free medium for 1.5 h prior to incubation with drugs. The incubation was done using two types of culture media, defined as low glucose (0.5–3 mM) and high glucose (15 mM). […] Incubation with compounds lasted 30 min, and then the media was collected, centrifuged at 4 °C for 2 min until assayed for insulin using commercial ELISA kit.

[3] = target: hGLP-1R (Homo sapiens, UniProt P43220); experiment: Calcium mobilization / calcium fluxes in HEK cells stably expressing hGLP-1R (ExviTech flow cytometry); conditions: 10 μM compound, then EC25 of GLP-1
[4] = target: hERG channel (Homo sapiens, UniProt Q12809); experiment: hERG channel inhibition, whole cell patch clamp in hERG-transfected CHO cells
Sequence of hERG channel (Q12809 whole entry): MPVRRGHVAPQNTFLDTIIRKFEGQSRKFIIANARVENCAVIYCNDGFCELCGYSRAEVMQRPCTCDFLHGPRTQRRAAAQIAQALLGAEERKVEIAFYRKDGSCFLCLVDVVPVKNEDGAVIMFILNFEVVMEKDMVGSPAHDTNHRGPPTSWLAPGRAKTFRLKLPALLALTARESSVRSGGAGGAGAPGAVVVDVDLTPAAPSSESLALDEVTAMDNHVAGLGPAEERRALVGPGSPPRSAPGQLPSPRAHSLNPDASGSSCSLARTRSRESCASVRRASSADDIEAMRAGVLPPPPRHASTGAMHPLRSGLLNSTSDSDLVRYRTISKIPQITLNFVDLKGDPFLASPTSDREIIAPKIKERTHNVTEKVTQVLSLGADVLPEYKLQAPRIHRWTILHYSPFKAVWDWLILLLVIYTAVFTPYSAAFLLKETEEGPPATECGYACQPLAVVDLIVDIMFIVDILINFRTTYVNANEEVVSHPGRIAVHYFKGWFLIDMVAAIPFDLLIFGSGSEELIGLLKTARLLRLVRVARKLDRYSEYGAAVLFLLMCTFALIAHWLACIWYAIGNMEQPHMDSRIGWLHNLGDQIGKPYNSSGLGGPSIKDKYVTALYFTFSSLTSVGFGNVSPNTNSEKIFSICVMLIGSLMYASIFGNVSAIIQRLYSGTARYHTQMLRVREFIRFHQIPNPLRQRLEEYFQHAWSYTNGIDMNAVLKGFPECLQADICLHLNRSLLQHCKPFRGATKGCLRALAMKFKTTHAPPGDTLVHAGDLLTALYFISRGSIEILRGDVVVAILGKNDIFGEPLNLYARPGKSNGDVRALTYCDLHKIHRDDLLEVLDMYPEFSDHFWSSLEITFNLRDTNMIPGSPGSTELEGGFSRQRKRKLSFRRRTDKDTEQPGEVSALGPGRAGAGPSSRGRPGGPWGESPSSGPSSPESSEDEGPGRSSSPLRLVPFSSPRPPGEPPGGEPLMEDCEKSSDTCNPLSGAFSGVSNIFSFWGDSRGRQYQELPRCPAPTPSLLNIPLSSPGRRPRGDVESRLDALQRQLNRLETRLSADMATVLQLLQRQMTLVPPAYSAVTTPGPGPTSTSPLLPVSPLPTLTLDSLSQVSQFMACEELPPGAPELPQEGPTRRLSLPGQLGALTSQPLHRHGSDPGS
Method: (tail) current was investigated using Chinese Hamster Ovary (CHO) cells stably transfected with
hERG, employing the whole cell patch clamp technique.
hERG inhibition. Patch clamp experiments were carried out using FlyscreenP® robot. CHO cells
choline chloride, 5 mM KCl, 1 mM MgCl2(H2O)6, 10 mM HEPES, 10 mM glucose, pH 7.4) to give
cell density of ~ 0.5 million per mL, and transferred to the cell mixer on Flyscreen® 8500 robot
which keeps cell suspension in a ready-for-use condition.
KMeSO3, 5 mM MgCl2(H2O)6, 10 mM HEPES-KOH, 5 mM EGTA, 5 mM K2ATP at pH 7.2. Ionic
currents from hERG transfected cells were measured in the whole cell configuration. Once the whole
the hERG current. An EC NaCl solution (120 mM NaCl, 5 mM KCl, 1.8 mM CaCl2, 10 mM
HEPES, 10 mM glucose, pH 7.4) was added for control readings, which were measured for ~ 360 s
followed by compound addition.
continuously for ~ 600 seconds. For analysis purposes, the current of interest (IKr) was considered.
Results were expressed as absolute values and percent change from control. Percent inhibition was
calculated by comparing the IKr current before and after addition of test compound once a steady-
state current had been attained.

[5] = tested on: male Wistar rats; experiment: Anxiety-like behavior in the elevated plus-maze; type: in vivo, rat; conditions: 9 1 and 0.5 mg/kg ip
Method: Animals naïve to the maze were manipulated for 7 days before testing. The day of the experiment, 30 min after ip injection of 9, animals were placed in the center of the maze, facing an open arm. The number of entries and the % of time spent in the exposed arms of the maze were measured. Test length was 5 min and animals were not retested.

[6] = tested on: male Wistar rats; experiment: Feeding inhibition in 12-h fasted male Wistar rats (icv)
[7] = In vivo pharmacokinetic study in male Sprague Dawley rats; conditions: rat, plasma
[8] = tested on: panel of 54 GPCRs; experiment: Selectivity panel of binding assays (Eurofins Cerep); conditions: 10 μM; all 54 receptors
Excerpt: (§1) 3. Binding to off-target receptors
(§2) Eurofins Cerep (France). Significant binding affinity was defined as a displacement of target
selective radioligand greater than 50% using a concentration of 10 µM of 9. […]

[9] = Microsomal stability test as summarised in the text (species not given in the sentence); type: in vitro ADME; conditions: rat, dog, human, liver microsomes; text summary of Table S6; read-out: half-life time in a microsomal stability test
[10] = target: CYP2C9 (Homo sapiens, UniProt P11712); experiment: P450 cytochrome inhibition, CYP2C9; type: in vitro ADME
Sequence of CYP2C9 (P11712 whole entry, canonical isoform): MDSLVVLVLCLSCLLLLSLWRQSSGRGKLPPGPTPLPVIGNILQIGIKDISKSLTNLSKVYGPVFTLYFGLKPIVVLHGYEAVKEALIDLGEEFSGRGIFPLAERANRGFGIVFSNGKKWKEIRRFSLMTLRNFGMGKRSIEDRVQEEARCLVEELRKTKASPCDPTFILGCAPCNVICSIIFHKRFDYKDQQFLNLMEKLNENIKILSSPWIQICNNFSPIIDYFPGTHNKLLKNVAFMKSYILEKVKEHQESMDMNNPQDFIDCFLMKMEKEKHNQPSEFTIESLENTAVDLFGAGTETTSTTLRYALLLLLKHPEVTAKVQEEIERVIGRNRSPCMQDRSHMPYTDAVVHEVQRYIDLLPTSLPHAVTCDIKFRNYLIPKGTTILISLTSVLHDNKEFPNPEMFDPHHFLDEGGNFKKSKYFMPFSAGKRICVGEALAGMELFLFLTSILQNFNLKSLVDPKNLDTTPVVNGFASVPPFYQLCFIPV
Method: Inhibition of P450 cytochrome isoforms. […] Effect on hERG channel. […] Patch clamp experiments were carried out using […]® robot. […] After S27

[11] = tested on: wild-type C57BL/6N mice; experiment: Glucose tolerance test in wild-type mice; type: in vivo, mouse
Method: (§3) Glucose tolerance test was carried out both in Wistar and Zucker (fa/fa) obese male rats and in wild-type and GLP-1R KO mice, by injecting an ip glucose load of 2 g/kg body weight (diluted in saline) or by oral administration of a glucose solution (2 g/kg in a volume of water of […] body weight). Animals were food-deprived overnight (12 h fasting) before testing. Thirty minutes before glucose load, animals received by ip administration the compound being tested dissolved in saline/DMSO (0.2%) as vehicle. Tail blood samples were collected before (0 min) and 5, 10, 15, 30, 45, 60, and 120 min after glucose administration. Glucose was determined using a commercial glucometer (Accu-check, Roche Diagnostic).

[12] = target: T1, GAL2 (h) (Homo sapiens, UniProt O43603); experiment: biochemical; parameters: radioligand displacement binding panel (Eurofins Cerep), % inhibition of control specific binding; conditions: agonist radioligand; read-out: % Inhibition of Control Specific Binding
T1 construct: gene GALR2
Excerpt: as §1, §2
(§4) selective radioligand greater than 50% using a concentration of 10 µM of 9.

[13] = target: T2, β1 (h) (Homo sapiens, UniProt P08588); experiment: biochemical; parameters: radioligand displacement binding panel (Eurofins Cerep), % inhibition of control specific binding; conditions: agonist radioligand; read-out: % Inhibition of Control Specific Binding
T2 construct: gene ADRB1
T2 sequence (P08588 whole entry): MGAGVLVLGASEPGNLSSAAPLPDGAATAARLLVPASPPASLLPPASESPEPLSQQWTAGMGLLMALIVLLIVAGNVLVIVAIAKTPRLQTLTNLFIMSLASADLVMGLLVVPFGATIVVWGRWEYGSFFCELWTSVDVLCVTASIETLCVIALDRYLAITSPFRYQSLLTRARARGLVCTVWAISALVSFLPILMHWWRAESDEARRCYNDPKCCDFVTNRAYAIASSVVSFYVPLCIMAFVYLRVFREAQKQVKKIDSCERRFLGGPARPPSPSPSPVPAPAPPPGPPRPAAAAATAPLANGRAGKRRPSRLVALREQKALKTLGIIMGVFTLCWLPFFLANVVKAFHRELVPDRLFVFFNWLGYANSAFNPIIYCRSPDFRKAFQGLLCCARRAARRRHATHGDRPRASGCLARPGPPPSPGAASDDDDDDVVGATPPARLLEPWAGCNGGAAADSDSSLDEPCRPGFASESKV
Excerpt: as §1, §2, §4

[14] = target: T3, NK3 (h) (Homo sapiens, UniProt P29371); experiment: biochemical; parameters: radioligand displacement binding panel (Eurofins Cerep), % inhibition of control specific binding; conditions: antagonist radioligand; read-out: % Inhibition of Control Specific Binding
T3 construct: gene TACR3
T3 sequence (P29371 whole entry): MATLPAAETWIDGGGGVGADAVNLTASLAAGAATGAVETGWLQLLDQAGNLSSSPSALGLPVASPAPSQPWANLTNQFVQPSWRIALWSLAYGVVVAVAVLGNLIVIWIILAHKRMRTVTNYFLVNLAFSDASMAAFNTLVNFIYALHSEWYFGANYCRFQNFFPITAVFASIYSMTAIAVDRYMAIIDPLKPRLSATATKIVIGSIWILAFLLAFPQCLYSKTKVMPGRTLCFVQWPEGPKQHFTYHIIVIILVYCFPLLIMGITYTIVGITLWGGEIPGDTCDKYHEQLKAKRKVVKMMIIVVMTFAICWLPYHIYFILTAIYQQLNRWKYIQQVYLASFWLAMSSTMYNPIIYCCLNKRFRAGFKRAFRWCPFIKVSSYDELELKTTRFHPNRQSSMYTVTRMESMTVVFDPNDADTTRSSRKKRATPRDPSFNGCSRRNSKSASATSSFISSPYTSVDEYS
Excerpt: as §1, §2, §4

[15] = target: CCR1 (h) (Homo sapiens, UniProt P32246); experiment: biochemical; parameters: radioligand displacement binding panel (Eurofins Cerep), % inhibition of control specific binding; conditions: agonist radioligand; read-out: % Inhibition of Control Specific Binding
Sequence of CCR1 (h) (P32246 whole entry): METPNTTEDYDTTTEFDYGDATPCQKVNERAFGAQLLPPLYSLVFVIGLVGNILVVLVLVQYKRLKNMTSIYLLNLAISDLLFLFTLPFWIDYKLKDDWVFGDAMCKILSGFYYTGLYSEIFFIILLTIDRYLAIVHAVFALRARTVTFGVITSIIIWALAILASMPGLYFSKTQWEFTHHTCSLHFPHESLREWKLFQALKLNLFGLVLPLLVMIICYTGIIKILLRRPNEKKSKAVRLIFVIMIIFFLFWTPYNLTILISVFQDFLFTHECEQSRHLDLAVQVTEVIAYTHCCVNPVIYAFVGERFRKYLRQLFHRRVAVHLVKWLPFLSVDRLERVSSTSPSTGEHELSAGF
Excerpt: as §1, §2, §4

[16] = target: T4, NK2 (h) (Homo sapiens, UniProt P21452); experiment: biochemical; parameters: radioligand displacement binding panel (Eurofins Cerep), % inhibition of control specific binding; conditions: agonist radioligand; read-out: % Inhibition of Control Specific Binding
T4 construct: gene TACR2
Excerpt: as §1, §2, §4

[17] = target: T5, A2A (h) (Homo sapiens, UniProt P29274); experiment: biochemical; parameters: radioligand displacement binding panel (Eurofins Cerep), % inhibition of control specific binding; conditions: agonist radioligand; read-out: % Inhibition of Control Specific Binding
T5 construct: gene ADORA2A
T5 sequence (P29274 whole entry): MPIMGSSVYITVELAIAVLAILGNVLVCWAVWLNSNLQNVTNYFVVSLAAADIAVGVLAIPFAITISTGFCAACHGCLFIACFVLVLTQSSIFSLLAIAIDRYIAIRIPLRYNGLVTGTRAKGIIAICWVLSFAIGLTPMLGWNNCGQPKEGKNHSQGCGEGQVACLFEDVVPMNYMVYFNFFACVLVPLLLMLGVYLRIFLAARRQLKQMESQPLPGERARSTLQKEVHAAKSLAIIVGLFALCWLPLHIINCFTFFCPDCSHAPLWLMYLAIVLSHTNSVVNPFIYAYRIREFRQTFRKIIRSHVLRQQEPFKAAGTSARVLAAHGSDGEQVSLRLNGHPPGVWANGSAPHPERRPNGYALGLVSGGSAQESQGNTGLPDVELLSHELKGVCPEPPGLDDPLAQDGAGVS
Excerpt: as §1, §2, §4

[18] = target: T6, MT1 (ML1A) (h) (Homo sapiens, UniProt P48039); experiment: biochemical; parameters: radioligand displacement binding panel (Eurofins Cerep), % inhibition of control specific binding; conditions: agonist radioligand; read-out: % Inhibition of Control Specific Binding
T6 construct: gene MTNR1A
Excerpt: as §1, §2, §4

[19] = target: T7, H1 (h) (Homo sapiens, UniProt P35367); experiment: biochemical; parameters: radioligand displacement binding panel (Eurofins Cerep), % inhibition of control specific binding; conditions: antagonist radioligand; read-out: % Inhibition of Control Specific Binding
T7 construct: gene HRH1
Excerpt: as §1, §2, §4

[20] = target: T8, A1 (h) (Homo sapiens, UniProt P30542); experiment: biochemical; parameters: radioligand displacement binding panel (Eurofins Cerep), % inhibition of control specific binding; conditions: antagonist radioligand; read-out: % Inhibition of Control Specific Binding
T8 construct: gene ADORA1
T8 sequence (P30542 whole entry): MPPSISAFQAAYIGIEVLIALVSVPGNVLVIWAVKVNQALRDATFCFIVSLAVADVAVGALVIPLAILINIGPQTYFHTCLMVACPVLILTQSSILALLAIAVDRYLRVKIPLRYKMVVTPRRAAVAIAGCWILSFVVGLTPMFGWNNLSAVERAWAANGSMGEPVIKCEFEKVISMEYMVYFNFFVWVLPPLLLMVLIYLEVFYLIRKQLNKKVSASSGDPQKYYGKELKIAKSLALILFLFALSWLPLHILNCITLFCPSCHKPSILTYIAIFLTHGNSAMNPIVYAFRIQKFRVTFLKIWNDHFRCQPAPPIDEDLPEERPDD
Excerpt: as §1, §2, §4

[21] = target: T9, H2 (h) (Homo sapiens, UniProt P25021); experiment: biochemical; parameters: radioligand displacement binding panel (Eurofins Cerep), % inhibition of control specific binding; conditions: antagonist radioligand; read-out: % Inhibition of Control Specific Binding
T9 construct: gene HRH2
T9 sequence (P25021 whole entry): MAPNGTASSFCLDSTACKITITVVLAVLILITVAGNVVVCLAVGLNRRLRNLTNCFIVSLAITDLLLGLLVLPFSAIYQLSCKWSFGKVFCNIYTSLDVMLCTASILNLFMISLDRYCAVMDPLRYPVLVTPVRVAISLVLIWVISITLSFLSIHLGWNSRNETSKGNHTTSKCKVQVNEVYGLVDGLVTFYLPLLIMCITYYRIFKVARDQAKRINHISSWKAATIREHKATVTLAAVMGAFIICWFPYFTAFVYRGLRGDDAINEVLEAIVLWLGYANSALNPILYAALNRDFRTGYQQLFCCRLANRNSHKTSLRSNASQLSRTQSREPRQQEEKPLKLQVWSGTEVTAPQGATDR
Excerpt: as §1, §2, §4

[22] = target: T10, B2 (h) (Homo sapiens, UniProt P30411); experiment: biochemical; parameters: radioligand displacement binding panel (Eurofins Cerep), % inhibition of control specific binding; conditions: agonist radioligand; read-out: % Inhibition of Control Specific Binding
T10 construct: gene BDKRB2
T10 sequence (P30411 whole entry): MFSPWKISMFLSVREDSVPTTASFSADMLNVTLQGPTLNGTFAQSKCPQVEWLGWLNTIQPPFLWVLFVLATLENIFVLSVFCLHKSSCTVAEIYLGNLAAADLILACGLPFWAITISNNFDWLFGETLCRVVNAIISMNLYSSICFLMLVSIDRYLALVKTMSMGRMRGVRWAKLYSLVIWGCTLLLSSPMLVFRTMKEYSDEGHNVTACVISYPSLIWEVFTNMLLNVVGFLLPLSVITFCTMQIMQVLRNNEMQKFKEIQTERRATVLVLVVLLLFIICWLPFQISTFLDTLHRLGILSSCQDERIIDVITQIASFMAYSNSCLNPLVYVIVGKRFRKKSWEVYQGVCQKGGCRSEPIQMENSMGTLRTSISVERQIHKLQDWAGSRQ
Excerpt: as §1, §2, §4

[23] = target: T11, A3 (h) (Homo sapiens, UniProt P0DMS8); experiment: biochemical; parameters: radioligand displacement binding panel (Eurofins Cerep), % inhibition of control specific binding; conditions: agonist radioligand; read-out: % Inhibition of Control Specific Binding
T11 construct: gene ADORA3
T11 sequence (P0DMS8 whole entry): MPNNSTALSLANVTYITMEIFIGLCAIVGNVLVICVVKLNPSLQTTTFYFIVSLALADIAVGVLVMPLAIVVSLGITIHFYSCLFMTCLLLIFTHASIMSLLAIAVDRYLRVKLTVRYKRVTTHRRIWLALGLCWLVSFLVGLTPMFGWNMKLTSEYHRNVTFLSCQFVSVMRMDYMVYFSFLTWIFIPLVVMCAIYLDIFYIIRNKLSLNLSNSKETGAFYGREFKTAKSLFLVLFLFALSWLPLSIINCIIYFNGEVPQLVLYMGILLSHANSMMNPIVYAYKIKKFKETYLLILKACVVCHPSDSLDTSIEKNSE
Excerpt: as §1, §2, §4

[24] = tested on: Wistar rats; experiment: Glucose tolerance test in Wistar rats; type: in vivo, rat; conditions: (S)-9 0.04 and 0.2 mg/kg ip; ip 2 g/kg glucose
Method: as §3

[25] = tested on: Zucker (fa/fa) obese male rats; experiment: Glucose tolerance test in diabetic fatty Zucker rats; type: in vivo, rat; conditions: (S)-9 0.4 mg/kg intragastrically; ip 2 g/kg glucose
[26] = tested on: GLP-1R KO mice; experiment: Glucose tolerance test in GLP-1R KO mice; type: in vivo, mouse; conditions: (S)-9; 2 g/kg glucose
Method: as §3

SMILES: FC(F)(F)c1ccc(-c2noc(CN3CCC[C@H](CN4CCOCC4)C3)n2)cc1 [(R)-9, (−)-4-{[(3R)-1-({3-[4-(Trifluoromethyl)phenyl]-1,2,4-oxadiazol-5-yl}methyl)piperidin-3-yl]methyl}morpholine]
- Insulin secreted ([1]; 0.1 nM test substance): 19 ng/mL
- Insulin secreted ([1]; 1 nM test substance): 31 ng/mL
- Insulin secreted ([1]; 10 nM test substance): 39 ng/mL
- potentiation of insulin secretion stimulated by GLP-1 (in words) [2]: similarly potentiate insulin secretion stimulated by GLP-1

SMILES: Cl.NC(=O)C1CCN(Cc2nc(-c3ccc(C(F)(F)F)cc3)no2)CC1 [compound 7, 1-({3-[4-(Trifluoromethyl)phenyl]-1,2,4-oxadiazol-5-yl}methyl)piperidine-4-carboxamide]
- melting point: 187 to 188 °C

SMILES: O=S(=O)(NC1CCN(Cc2nc(-c3ccc(C(F)(F)F)cc3)no2)CC1)c1ccccc1Cl [compound 1]
- result of ExviTech library screening [3]: putative modulator of the GLP-1R

SMILES: FC(F)(F)c1ccc(-c2noc(CN3CCCC(CN4CCOCC4)C3)n2)cc1 (stereo not drawn) [compound 9, 4-{[1-({3-[4-(Trifluoromethyl)phenyl]-1,2,4-oxadiazol-5-yl}methyl)piperidin-3-yl]methyl}morpholine]
- IC50 [4]: 4.13 µM
- hERG inhibition (in words) [4]: weak inhibitor of the hERG channel at micromolar concentrations
- Inhibition (%), Mean ([4]; 1 µM): 29.7%
- Inhibition (%), single values ([4]; 1 µM): 27.0% and 32.3%
- Inhibition (%), Mean ([4]; 10 µM): 62.3%
- Inhibition (%), single values ([4]; 10 µM): 52.1% and 72.5%
- Inhibition (%), Mean ([4]; 30 µM): 80.5%
- Inhibition (%), single values ([4]; 30 µM): 78.0% and 83.0%
- anxiety-like behavior in the elevated plus-maze [5]: does not induce anxiety-like behavior; also recorded: did not result in the emergence of anxiety-like behaviors nor hypolocomotion
- potentiation of feeding inhibition induced by exendin-4 (in words) ([6]; 9 1 μg/kg icv): potentiates; also recorded: potentiate the feeding inhibition; also recorded: enhancing satiety induced by the GLP-1R agonist exendin-4
- AUC(0-inf) at 24 h ([7]; IV 2 mg/kg, mean ± SD, N = 4): 311 ± 12.9 ng·h/mL
- AUC(0-t) at 24 h ([7]; IV 2 mg/kg, mean ± SD, N = 4): 278 ± 20 ng·h/mL
- C0 ([7]; IV 2 mg/kg, mean ± SD, N = 4): 492 ± 81.9 ng/mL
- clearance at 24 h ([7]; IV 2 mg/kg, mean ± SD, N = 4): 107 ± 4.58 mL/min/kg
- half-life at 24 h ([7]; IV 2 mg/kg, mean ± SD, N = 4): 195 ± 61.8 min
- Vd at 24 h ([7]; IV 2 mg/kg, mean ± SD, N = 4, read-out: Vss): 18.1 ± 6.62 L/kg
- bioavailability ([7]; PO 10 mg/kg vs IV 2 mg/kg): 39%
- bioavailability at 24 h ([7]; PO 10 mg/kg vs IV 2 mg/kg): 38.9 ± 9.52%
- AUC(0-inf) at 24 h ([7]; PO 10 mg/kg, mean ± SD, N = 4): 644 ± 267 ng·h/mL
- AUC(0-t) at 24 h ([7]; PO 10 mg/kg, mean ± SD, N = 4): 540 ± 132 ng·h/mL
- Cmax at 24 h ([7]; PO 10 mg/kg, mean ± SD, N = 4): 185 ± 14.5 ng/mL
- Tmax at 24 h ([7]; PO 10 mg/kg, mean ± SD, N = 4): 49.8 ± 17.4 min
- half-life at 24 h ([7]; PO 10 mg/kg, mean ± SD, N = 4): 172 ± 113 min
- Tmax ([7]; oral route, 10 mg/kg, read-out: time of maximal concentration post-ingestion (converted)): 50 min
- displacement of the specific binding [8]: lower than 50%
- half-life at 1 µM [9]: > 30 min
- IC50 [10]: 80 µM
- glucose handling after ip glucose load ([11]; 9 0.1 mg/kg ip, ip 2 g/kg glucose, 0.1 mg/kg): improved glucose handling
- glucose handling after oral glucose load ([11]; 9 0.1 or 1 mg/kg ip, oral 2 g/kg glucose): improved glucose handling
- inhibition at 10 µM [12]: 0%
- inhibition at 10 µM [13]: 3%
- inhibition at 10 µM [14]: -8%
- inhibition at 10 µM [15]: 4%
- inhibition at 10 µM [16]: 19%
- inhibition at 10 µM [17]: -3%
- inhibition at 10 µM [18]: -3%
- inhibition at 10 µM [19]: -4%
- inhibition at 10 µM [20]: 5%
- inhibition at 10 µM [21]: -13%
- inhibition at 10 µM [22]: 8%
- inhibition at 10 µM [23]: -20%

SMILES: FC(F)(F)c1ccc(-c2noc(CN3CCC[C@@H](CN4CCOCC4)C3)n2)cc1 [(S)-9, (+)-4-{[(3S)-1-({3-[4-(Trifluoromethyl)phenyl]-1,2,4-oxadiazol-5-yl}methyl)piperidin-3-yl]methyl}morpholine]
- glucose handling after glucose load [24]: clearly improved glucose handling
- Insulin secreted ([1]; 0.1 nM test substance): 29 ng/mL
- Insulin secreted ([1]; 1 nM test substance): 39 ng/mL
- Insulin secreted ([1]; 10 nM test substance): 37 ng/mL
- potentiation of insulin secretion stimulated by GLP-1 (in words) [2]: similarly potentiate insulin secretion stimulated by GLP-1
- duration of the feeding effect after injection ([6]; (S)-9 5 μg/kg icv): up to 2 h
- effect on feeding ([6]; (S)-9 5 μg/kg icv): decreased feeding
- glucose handling after glucose load, oral dosing [25]: orally active
- glucose handling after glucose load [26]: devoid; also recorded: inactive
- glucose handling after glucose load ([11]; (S)-9, 2 g/kg glucose, 12-h fasted): improvement
